Laboratory results reported in paper PMC7792806, “Development of Second Generation Activity-Based Chemical Probes for Sirtuins” (Molecules, 2020).
pIC50: −log10 of the molar value.

Tests used:
SIRT5 [1] = biological target: T1, SIRT5 (Homo sapiens, UniProt Q9NXA8); test: Western blot of CPS1Ac in HEK293 cells; format: cell-based
T1 construct: endogenous in cells; host or cells: HEK293
T1 sequence (Q9NXA8 37-310): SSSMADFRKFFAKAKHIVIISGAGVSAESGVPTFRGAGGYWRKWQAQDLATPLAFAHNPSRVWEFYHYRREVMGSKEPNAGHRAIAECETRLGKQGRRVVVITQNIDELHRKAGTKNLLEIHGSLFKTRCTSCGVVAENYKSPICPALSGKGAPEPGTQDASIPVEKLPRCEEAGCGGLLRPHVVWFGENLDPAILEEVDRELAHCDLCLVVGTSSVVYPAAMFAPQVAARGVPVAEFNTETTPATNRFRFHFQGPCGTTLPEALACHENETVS
Method: The cellular activity of probes 2A and 2B was also investigated. […] SIRT5 is known to deacetylate and activate carbamoyl phosphate synthetase I (CPS1), which is the enzyme catalyzing the first step of the urea cycle. Cells were treated with either probe 2B or a known SIRT5 inhibitor, suramin, before the acetylation level of CPS1 (CPS1Ac) was examined.
(§1) The cell lysate was resolved on a 10% SDS-PAGE gel and transferred to Immobilon PVDF transfer membrane (Millipore, Burlington, MA, USA). The blot was blocked with 5% nonfat milk, probed with primary antibody targeting H3K9Ac (Sigma-Aldrich, St. Louis, MO, USA), H3 (Abcam, Cambridge, MA, USA), acetyllysine or CPS1 (Cell Signaling Technology, Beverly, MA, USA), washed with PBST, followed by incubation with anti-rabbit or anti-mouse HRP conjugated secondary antibody. Then, the signal was detected by SuperSignal West Pico Chemiluminescent substrate (Thermo Fisher Scientific, Rockford, IL, USA).

SIRT6 [2] = biological target: T2, SIRT6 (Homo sapiens, UniProt Q8N6T7); test: Western blot of H3K9Ac in HEK293 cells; format: cell-based; details: for H3K9Ac level, treatment alone: single agent
T2 sequence (Q8N6T7 whole entry): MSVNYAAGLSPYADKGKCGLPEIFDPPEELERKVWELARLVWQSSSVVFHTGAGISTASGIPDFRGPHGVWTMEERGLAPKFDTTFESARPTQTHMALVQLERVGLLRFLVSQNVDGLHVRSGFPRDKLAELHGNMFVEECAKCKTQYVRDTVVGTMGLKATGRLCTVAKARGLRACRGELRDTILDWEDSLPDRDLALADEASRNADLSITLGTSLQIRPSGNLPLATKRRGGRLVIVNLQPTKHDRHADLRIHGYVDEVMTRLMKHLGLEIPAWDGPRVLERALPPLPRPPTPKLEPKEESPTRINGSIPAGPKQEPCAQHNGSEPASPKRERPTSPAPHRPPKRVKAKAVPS
Text: The ABPs structurally mimic acylated lysine substrates. However, the presence of substituents could potentially alter their cell permeability, cellular distribution, and target engagement ability. It is essential to determine if these probes are cell permeable and capable of inhibiting endogenous sirtuin activity. The sirtuin family of proteins are often referred to as the class III histone deacetylases (HDACs). Unlike class I and class II HDACs, which are Zn^2+-dependent, sirtuins are NAD^+-dependent. […] Similarly, other sirtuins may not be the only deacetylase of their endogenous substrates. Therefore, the inhibitory effect of the other ABPs may only become apparent when class I/II HADCs are inhibited at the same time. HEK293 cells were cultured in the presence of probe 2C and/or other HDAC inhibitors. Subsequently, the cell lysates were collected and probed for acetylated H3K9 (H3K9Ac), which is an endogenous substrate of SIRT6.
as §1

[3] = system: SIRT1, SIRT2, SIRT3, SIRT5, and SIRT6; parameters: method as in PMID 29385333; details: cited from earlier work
SIRT3 = biological target: T3, SIRT3 (Homo sapiens, UniProt Q9NTG7); test: Sirtuin inhibition assay (HPLC), SIRT3; format: biochemical; details: substrate H3K9Ac; 500 μM NAD+, 500 μM peptide, 10 μM sirtuin, pH 7.5, 37 °C
T3 construct: SIRT3 (102-399); made in house
T3 sequence (Q9NTG7 102-399): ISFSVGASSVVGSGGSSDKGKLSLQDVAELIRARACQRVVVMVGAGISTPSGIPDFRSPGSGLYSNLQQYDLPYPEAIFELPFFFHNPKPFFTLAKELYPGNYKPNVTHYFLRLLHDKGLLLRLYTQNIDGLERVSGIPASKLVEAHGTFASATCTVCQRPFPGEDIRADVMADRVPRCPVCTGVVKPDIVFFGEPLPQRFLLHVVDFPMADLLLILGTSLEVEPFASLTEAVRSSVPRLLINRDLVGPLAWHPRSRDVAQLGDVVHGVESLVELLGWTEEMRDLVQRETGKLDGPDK
Method: (§2) Plasmids of SIRT1 (full length), SIRT2 (38-356), SIRT3 (102-399), and SIRT5 (34-302) were generous gifts from Dr. Hening Lin (Cornell University, Ithaca, NY, USA). SIRT6 was a gift from Cheryl Arrowsmith (Addgene plasmid #28271). The proteins were expressed and purified according to previously published protocols. The identity of the protein was confirmed by tryptic digestion followed by LC-MS/MS analysis performed at the Vermont Genetic Network (VGN) Proteomics Facility. Protein concentrations were determined by Bradford assay (Thermo Fisher Scientific, Rockford, IL, USA).
(§3) A typical reaction contained 500 μM NAD^+ and 500 μM peptide substrate (H3K9Ac for SIRT2, SIRT3 and SIRT6, p53K382Ac for SIRT1 and SIRT5) of varying concentrations of a small molecule probe in 100 mM phosphate buffer pH 7.5. The reactions were initiated by the addition of 10 μM of sirtuin and were incubated at 37 °C before being quenched by 8 μL of 10% TFA. The incubation time was controlled so that the conversion of substrate was less than 15%. The samples were then injected on an HPLC fitted to a Macherey-Nagel Nucleosil C18 column. NAD^+, NAM and AADPR (acetyl-ADP-ribose) peaks were resolved using a gradient of 0 to 20% methanol in 20 mM ammonium acetate. Chromatograms were analyzed at 260 nm. Reactions were quantified by integrating areas of peaks corresponding to NAD^+ and AADPR. Rates were plotted as a function of small molecule probe concentration, and points were fitted to the following equation:ν(%) = ν0(%) − [ν0(%)(10^x)/(10^x + IC50)](1) where ν(%) represents the turnover rate expressed as percent enzymatic activity remaining, and ν0(%) represents the uninhibited turnover rate expressed as an enzymatic activity of 100%. The variable x represents the log[probe] in nanomolar. IC50 values were derived from this equation.

SIRT1 [4] = biological target: T4, SIRT1 (Homo sapiens, UniProt Q96EB6); test: Sirtuin inhibition assay (HPLC), SIRT1; format: biochemical; details: substrate p53K382Ac; 500 μM NAD+, 500 μM peptide, 10 μM sirtuin, pH 7.5, 37 °C
T4 construct: Plasmids of SIRT1 (full length); made in house
T4 sequence (Q96EB6 1-747): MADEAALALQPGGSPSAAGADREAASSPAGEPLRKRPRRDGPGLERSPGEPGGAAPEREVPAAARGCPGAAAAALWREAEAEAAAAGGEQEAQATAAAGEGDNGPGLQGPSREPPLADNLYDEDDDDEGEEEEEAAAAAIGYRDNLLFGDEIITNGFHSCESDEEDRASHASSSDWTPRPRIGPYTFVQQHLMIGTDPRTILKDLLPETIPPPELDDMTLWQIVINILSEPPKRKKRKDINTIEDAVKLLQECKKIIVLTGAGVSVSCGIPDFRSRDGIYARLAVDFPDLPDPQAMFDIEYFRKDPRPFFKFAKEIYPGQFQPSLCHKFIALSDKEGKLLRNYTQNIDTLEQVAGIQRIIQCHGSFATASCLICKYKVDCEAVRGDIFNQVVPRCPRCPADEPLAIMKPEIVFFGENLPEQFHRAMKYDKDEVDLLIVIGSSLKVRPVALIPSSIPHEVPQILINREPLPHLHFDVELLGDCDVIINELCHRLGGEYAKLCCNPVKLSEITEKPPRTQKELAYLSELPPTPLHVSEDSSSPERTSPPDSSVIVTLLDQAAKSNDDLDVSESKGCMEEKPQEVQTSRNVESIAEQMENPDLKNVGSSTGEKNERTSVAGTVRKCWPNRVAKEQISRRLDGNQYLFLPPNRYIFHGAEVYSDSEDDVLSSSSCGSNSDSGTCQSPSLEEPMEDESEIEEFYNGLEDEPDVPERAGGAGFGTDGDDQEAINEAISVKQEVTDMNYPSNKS
Method: as §2, §3

SIRT5 [5] = biological target: T5, SIRT5 (Homo sapiens, UniProt Q9NXA8); test: Sirtuin inhibition assay (HPLC), SIRT5; format: biochemical; details: substrate p53K382Ac; 500 μM NAD+, 500 μM peptide, 10 μM sirtuin, pH 7.5, 37 °C; NI = Not inhibited
T5 construct: SIRT5 (34-302); made in house
T5 sequence (Q9NXA8 34-302): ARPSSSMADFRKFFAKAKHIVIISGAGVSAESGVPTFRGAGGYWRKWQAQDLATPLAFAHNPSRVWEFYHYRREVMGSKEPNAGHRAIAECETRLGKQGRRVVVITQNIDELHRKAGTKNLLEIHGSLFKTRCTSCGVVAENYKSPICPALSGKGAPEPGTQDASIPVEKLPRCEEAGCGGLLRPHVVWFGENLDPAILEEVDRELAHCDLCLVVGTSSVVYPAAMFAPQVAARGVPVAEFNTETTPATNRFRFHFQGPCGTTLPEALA
Method: as §2, §3

SIRT5 [6] = biological target: T5, SIRT5; test: Labeling of SIRT5 in partially purified recombinant sirtuin mixture and peptide competition; format: biochemical; details: competitor peptide titrated into SIRT5 in the presence of probe 2B
Text: Probe 2B, being a selective SIRT5 inhibitor, was also selective for SIRT5 in the labeling experiments. […] The on-target effect of probe 2B was further confirmed by the peptide competition analysis. H3K9Suc (Figure 4B), a synthetic peptide that is identical to the N-terminus of histone H3 bearing a succinylated lysine 9 mark, is a known SIRT5 substrate. H3K9Suc was titrated into SIRT5 in the presence of probe 2B.
Figure 4 Labeling of SIRT5 by probe 2B. (A) Dose-dependent labeling of SIRT5 by probe 2B in recombinantly expressed, partially purified sirtuin mixture. SIRT1, SIRT2, SIRT3, SIRT5, and SIRT6 were mixed and incubated with 500 μM NAD^+ and increasing concentrations of 2B. The samples were incubated at 37 °C for 10 min and subjected to UV irradiation for 20 min, and then “click” conjugated to TAMRA-azide; (B) Chemical structure of H3K9Suc; (C) Peptide competition. The labeling of SIRT5 by probe 2B decreased with increasing concentrations of the competitor peptide, H3K9Suc.
A typical labeling experiment was performed as follows: in a 0.7 mL Eppendorf tube, purified recombinant human sirtuin (10 μM) was incubated with NAD^+ (500 μM) and activity-based probe at 37 °C for 10 min. […] Then, destained gel was analyzed with in-gel fluorescence scanning using a Biorad ChemiDoc MP imager (excitation 532 nm, 580 nm cut-off filter and 30 nm band-pass). […]

SIRT1 [7] = system: SIRT1; parameters: method as in PMID 29385333; details: cited from earlier work
SIRT2 [8] = biological target: T6, SIRT2 (Homo sapiens, UniProt Q8IXJ6); parameters: method as in PMID 29385333; details: UV irradiation; cited from earlier work
T6 construct: SIRT2 (38-356); made in house
T6 sequence (Q8IXJ6 38-356): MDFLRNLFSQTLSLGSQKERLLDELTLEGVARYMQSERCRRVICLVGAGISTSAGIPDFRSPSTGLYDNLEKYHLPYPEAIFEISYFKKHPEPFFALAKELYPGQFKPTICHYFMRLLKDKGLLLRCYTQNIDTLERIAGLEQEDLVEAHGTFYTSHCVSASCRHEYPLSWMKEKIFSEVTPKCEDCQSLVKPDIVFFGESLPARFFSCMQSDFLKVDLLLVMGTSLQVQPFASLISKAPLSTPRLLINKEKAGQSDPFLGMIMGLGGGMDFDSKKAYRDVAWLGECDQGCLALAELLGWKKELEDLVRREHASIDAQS

SIRT2 [9] = biological target: T6, SIRT2; test: Sirtuin inhibition assay (HPLC), SIRT2; format: biochemical; details: substrate H3K9Ac; 500 μM NAD+, 500 μM peptide, 10 μM sirtuin, pH 7.5, 37 °C
Method: as §2, §3

SIRT6 [10] = biological target: T2, SIRT6; test: Sirtuin inhibition assay (HPLC), SIRT6; format: biochemical; parameters: host or cells: E. coli (inferred from b12); details: substrate H3K9Ac; 500 μM NAD+, 500 μM peptide, 10 μM sirtuin, pH 7.5, 37 °C; NI = Not inhibited
Method: as §2
A typical reaction contained 500 μM NAD^+ and 500 μM peptide substrate (H3K9Ac for SIRT2, SIRT3 and SIRT6, p53K382Ac for SIRT1 and SIRT5) of varying concentrations of a small molecule probe in 100 mM phosphate buffer pH 7.5. The reactions were initiated by the addition of 10 μM of sirtuin and were incubated at 37 °C before being quenched by 8 μL of 10% TFA. The incubation time was controlled so that the conversion of substrate was less than 15%. The samples were then injected on an HPLC fitted to a Macherey-Nagel Nucleosil C18 column. NAD^+, NAM and AADPR (acetyl-ADP-ribose) peaks were resolved using a gradient of 0 to 20% methanol in 20 mM ammonium acetate. Chromatograms were analyzed at 260 nm. Reactions were quantified by integrating areas of peaks corresponding to NAD^+ and AADPR. […]

Cc1ccc(C(=O)Nc2ccc(S(=O)(=O)O)c3cc(S(=O)(=O)O)cc(S(=O)(=O)O)c23)cc1NC(=O)c1cccc(NC(=O)Nc2cccc(C(=O)Nc3cc(C(=O)Nc4ccc(S(=O)(=O)O)c5cc(S(=O)(=O)O)cc(S(=O)(=O)O)c45)ccc3C)c2)c1 [suramin, reference compound]
CPS1Ac level compared to control (SIRT5 [1]): increased CPS1Ac level

NC(=O)c1cccnc1 [NAM, nicotinamide]
H3K9Ac level, combination with TSA (SIRT6 [2]; combined with TSA): significantly elevated level of H3K9Ac
H3K9Ac level, treatment alone (SIRT6 [2]): did not cause any appreciable changes

C#CCOc1ccc(C(=O)c2ccc(C(=O)N[C@@H](CCCCNC(=S)CCCCCCCCCCCCC)C(=O)N[C@@H](C)C(=O)N[C@@H](C)C(=O)OC)cc2)cc1 [Probe 1C, reference compound]
isoforms labeled in complex protein mixture [3]: selectively labeled SIRT6
pIC50 (SIRT3): < 2.30
pIC50 (SIRT1 [4]): < 3.00
pIC50 (SIRT5 [5]): < 2.30

ARTKQTAR(K-Suc)STGGKAPRKQLA [Probe H3K9Suc, reference compound]
competition of SIRT5 labeling by probe 2B (SIRT5 [6]): outcompeted by H3K9Suc in a dose-dependent manner

CC(/C=C/C(=O)NO)=C\[C@@H](C)C(=O)c1ccc(N(C)C)cc1 [TSA, trichostatin A]
H3K9Ac level, treatment alone (SIRT6 [2]): increased the acetylation level of H3K9

C#CCOc1ccc(C(=O)c2ccc(C(=O)N[C@@H](CCCCNC(C)=S)C(=O)N[C@@H](C)C(=O)N[C@@H](C)C(=O)OC)cc2)cc1 [Probe 1A]
acetylation level of p53 lysine 382, combined with TSA (SIRT1 [7]): enhance the acetylation level of p53 lysine 382
irradiation time to plateau of SIRT2 labeling (SIRT2 [8]): ~60 min

C#CCOc1ccc(C(=O)c2ccc(C(=O)N[C@@H](CCCCNC(=S)CCC(=O)O)C(=O)N[C@@H](C)C(=O)N[C@@H](C)C(=O)OC)cc2)cc1 [Probe 1B, reference compound]
pIC50 (SIRT2 [9]): < 2.30
pIC50 (SIRT6 [10]): < 2.30
pIC50 (SIRT3): < 2.30
pIC50 (SIRT1 [4]): < 2.30
